Assay results: patent EP1132382A1, “3-Oxy-7-sulfamyl-3,4-dihydro-1,2,4-benzothiadazine-1,1-dioxide derivatives having diuretic and/or natriuretic activity” (Farma Invent B.V., priority 2000, dated 2001)

Columns and labels:
[1] = Hydrolysis of epithiazide to hydroxyhydrothiazide in aqueous phosphate buffer; type: physicochemical; conditions: 0.067 m phosphate buffer, pH=7, 37°C, 0.067 M aqueous phosphate buffer, read-out: epithiazide cleaved into hydroxyhydrothiazide
Description: Figure 1: Hydrolysis of epithiazide to hydroxyhydrothiazide under various temperatures and pH in a 0.067 M phosphate buffer.
Epithiazide was contacted with an aqueous phosphate buffer of 0.067 M at two different temperatures (RT and 37°C), at different pHs, ranging from 5,2 to 13.

[2] = Bioavailability study of epithiazide in healthy volunteers; type: in vivo
[3] = pKa of isolated hydroxyhydrothiazide; type: physicochemical; conditions: isolated and purified product
Description: The hydroxyhydrothiazide was synthesised by the hydrolysis of epithiazide. Conversion to hydroxyhydrothiazide was completed in 72 hours at 37 °C in a 0.067 M phosphate buffer.

[4] = Intravenous administration to dogs: elimination and urine production; type: in vivo; conditions: 0.08-0.4 mg/kg
Description: The pharmacotherapeutic activity of the hydroxyhydrothiazides has been evaluated. The natriuretic an/or diuretic activity has been determined by testing on animals and healthy volunteers.
The elimination from the body was monitored for 48 hours. […] The diuretic effect was monitored by measuring the urine production.

[5] = after administration of a suitable dose of epithiazide

degraded at 10 h [1] [%] | detection in the plasma [2, 5] | detection in the urine [2, 5] | pKa [3] | distribution of the compound throughout the body [4] | half-life compared with conventional thiazide-based diuretics such as epithiazide and hydrochlorothiazide ([4]; elimination monitored for 48 hours) | biological half-life (relative to epithiazide) ([2]; compound found after administration of epithiazide) | Structure (SMILES) | diuretic effect (urine production) [4]
> 80 | no epithiazide could be detected | detected | – | – | – | – | NS(=O)(=O)c1cc2c(cc1Cl)NC(CSCC(F)(F)F)NS2(=O)=O (centres unmarked) [epithiazide] | –
– | – | – | 9.5 | rapid distribution | about twice as long | longer biological half-life | NS(=O)(=O)c1cc2c(cc1Cl)NC(O)NS2(=O)=O (centres unmarked) [hydroxyhydrothiazide] | instant diuretic effect
